Results published in article PMC6644700 (ACS chemical biology, 2019).

Target: T1, Nicotinamide N-methyltransferase (NNMT) (Homo sapiens, UniProt P40261, C165A)
T1 sequence (P40261 1-264 C165A): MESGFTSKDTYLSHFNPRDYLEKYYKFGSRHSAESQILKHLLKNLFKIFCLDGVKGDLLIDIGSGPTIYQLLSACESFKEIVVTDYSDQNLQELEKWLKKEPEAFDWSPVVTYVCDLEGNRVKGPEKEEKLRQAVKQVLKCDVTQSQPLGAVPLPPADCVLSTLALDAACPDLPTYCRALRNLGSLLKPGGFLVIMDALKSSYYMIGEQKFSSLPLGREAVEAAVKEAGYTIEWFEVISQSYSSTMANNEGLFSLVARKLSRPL
Experiment: suicide inactivation of purified mutant with SAM
Assay type: biochemical

Structure (SMILES) | suicide inactivation of purified mutant with SAM
NC(=O)c1cnccc1Cl [compound 3, 4-chloronicotinamide] | By contrast, the C165A mutant remained sensitive.
Clc1ccncc1 [compound 2, 4-chloropyridine] | By contrast, the C165A mutant remained sensitive.
